Test results reported in patent publication US20180312651A1, “FOAMS AND ARTICLES MADE FROM FOAMS CONTAINING HCFO OR HFO BLOWING AGENTS” (HONEYWELL INTERNATIONAL INC., priority 2011, published 2018).
Counter-ions that a name gives are not always drawn. Like-named read-outs stand apart in the source and are kept apart here.

Assays:
[1] = cited from earlier work
[2] = manufacturers' literature; cited from earlier work
PEL = settings: Honeywell internal PEL
Text: Table 1 and Table 2, below, list the properties of 1233zd(E) and 1234ze(E) compared to other commonly used blowing agents.
Table 3A and Table 3B list the properties of 1233zd(E) compared to some non-flammable blowing agents, such as 245fa and 141b, and various flammable blowing agents, such as methyl formate and hydrocarbons. […] Note that the global warming potential (GWP) of 1233zd(E) of less than 5 is the lowest among all blowing agents compared. Moreover, the GWP of 1233zd(E) is more than two orders of magnitude lower than that of the currently utilized 245fa, and is more than one order of magnitude lower than the present limitations in the EU F-Gas Regulation.

In the case of CC(F)(Cl)Cl [141b, 1,1-dichloro-1-fluoroethane], the “LFL/UFL (Vol % in Air)” value [1] is listed as 7.6-17.7 Vol % and the PEL [2] is listed as 500 ppm.

In the case of CC(F)(F)Cl [142b, 1-chloro 1,1-difluoroethane], the “LFL/UFL (Vol % in Air)” value [1] is listed as 8.0-15.4 Vol % and the PEL [2] is listed as 1000 ppm.

In the case of FC(F)CC(F)(F)F [245fa, 1,1,1,3,3-pentafluoropropane], the “LFL/UFL (Vol % in Air)” value [1] is given as “None” and the PEL [2] is given as 300 ppm.

In the case of CC(F)(F)CC(F)(F)F [365mfc, 1,1,1,3,3-pentafluorobutane], the “LFL/UFL (Vol % in Air)” value [1] is listed as 3.6-13.3 Vol % and the PEL [2] is listed as 1000 ppm.

For FC(F)(F)/C=C/Cl [1233zd(E), trans-1-chloro-3,3,3-trifluoropropene], the “LFL/UFL (Vol % in Air)” value [1] is listed as “None”, the PEL (PEL) is listed as 300^5 and the PEL [2] is listed as 300 ppm.

In the case of F/C=C/C(F)(F)F [1234ze(E), trans-1,3,3,3-tetrafluoropropene], the “LFL/UFL (Vol % in Air)” value [1] is listed as “None” and the PEL [2] is listed as 1000 ppm.

In the case of C1CCCC1 [C-C5, cyclopentane], the “LFL/UFL (Vol % in Air)” value [1] is given as 1.5-8.7 Vol %.

In the case of COC=O [Methyl Formate, methyl formate], the “LFL/UFL (Vol % in Air)” value [1] is given as 5.0-23.0 Vol % and the PEL [2] is given as 600 ppm.

In the case of FC(Cl)Cl [compound 22, dichlorofluoromethane], the “LFL/UFL (Vol % in Air)” value [1] is listed as “None” and the PEL [2] is listed as 1000 ppm.

In the case of CCC(C)C [isopentane], the “LFL/UFL (Vol % in Air)” value [1] is given as 1.4-8.3 Vol % and the PEL [2] is given as 600 ppm.

In the case of CCCCC [normal pentane, n-pentane], the “LFL/UFL (Vol % in Air)” value [1] is listed as 1.4-8.3 Vol % and the PEL [2] is listed as 600 ppm.
